Data taken from PubChem BioAssay AID1963839 (Molecular Pharmacology Branch, DTP, NCI, 2024).

Test system: 817829-284-R-J1-PDC complex spheroid viability
Assay: Anticancer human tumor 817829-284-R-J1-PDC patient-derived colon adenocarcinoma cell line growth inhibition [POLQ]
Details: for IC50: curve of first compound; for viability, T/C: stronger effect = lower value
Method: Multicellular complex tumor spheroid response to Polymerase (POL) inhibitors (novobiocin, ART-558, RP6685) in combination with a variety of drugs and investigational agents in selected tumor cell lines
The POL inhibitors (novobiocin, ART-558, and RP6685) were evaluated both individually and in combination with standard of care and investigational anticancer small molecules within a complex spheroid model of solid tumors. . Complex spheroids include a stromal component modeled by human endothelial cells (HUVEC) and fibroblasts modeled by human mesenchymal stem cells (MSCs). The concentration ranges selected for each drug and investigational agent were based upon clinically achievable concentrations if the clinical Cmax of the agent was known.
Compounds. The drugs and investigational agents: novobiocin (NSC847541), ART-558 (NSC835418), RP-6685 (NSC848927), peposertib (NSC802822), ceralasertib (NSC780249), elimusertib (NSC800525), camonsertib (NSC841442), AZD-1390 (NSC803789), olaparib (NSC753686), talazoparib (NSC767125), rucaparib (NSC756644), sotorasib (NSC818433), MRTX-1133 (NSC836407), SN-38 (NSC673596), topotecan (NSC609699), epotoside (NSC141540), doxorubicin (NSC123127), gemcitabine (NSC613327), 5-fluorouracil (NSC19893), paclitaxel (NSC125973), vemurafenib (NSC761431), MSA-2 (NSC828583), SN-011 (NSC837082), adavosertib (NSC754352), prexasertib (NSC758257), carboplatin (NSC241240) and oxaliplatin (NSC266046), were obtained from the National Cancer Institute (NCI) Developmental Therapeutics Program Chemical Repository (21). The FDA-approved anticancer drug set is available from the Developmental Therapeutics Program at https://dtp.cancer.gov/organization/dscb/obtaining/. […] The stock solutions were prepared in dimethyl sulfoxide (DMSO, Sigma-Aldrich, St. Louis, MO, cat. D2650), except for the platinum compounds which were prepared in saline (Quality Biological, Gaithersburg, MD, cat. 114-055-101), at 800-fold the tested concentration and stored at -70 degrees C prior to their use. All drugs and investigational agents were tested over a range starting from a high concentration at or near the clinical Cmax and decreasing in half-log increments. If the clinical Cmax for an agent had not been determined, the highest concentration tested was 10 microM, except for SN-38, which was tested at a high concentration of 1 microM.
Cell Culture. All cells were maintained in an incubator at 37 degrees C and 5% CO2 with 95% humidity. The PDC lines were cultured according to standard operating procedures established by the NCI PDMR (https://pdmr.cancer.gov). Table 3 of the manuscript, lists the cell lines along with the number of the three cell types plated to form the mct-spheroids and media for tumor cell growth. After thawing, all PDC lines, except 997537-175-T-J1-PDC and 415267-285-R-J2-PDC, were cultured in Matrigel-coated flasks prepared with a working solution of 1X Ham's F-12 nutrient mix, without supplementation (Thermo Fisher Scientific, cat. 11765054), 100 U/mL penicillin-streptomycin (Thermo Fisher Scientific, cat. 15140122), and 2.5% Matrigel (Corning Inc., Corning, NY, cat. 354248) for the first three passages. The two PDC lines 997537-175-T-J1-PDC and 415267-285-R-J2-PDC were cultured on uncoated flasks. The 857933-349-R-J2-PDC line was cultured in 6C/Colon 1B media containing advanced DMEM/F-12 (Thermo Fisher Scientific, cat. 12634028), 10 mM HEPES (Thermo Fisher Scientific, cat. 15630080), 1X GlutaMAX supplement (Thermo Fisher Scientific, cat. 35050061), 0.1 mg/mL primocin (InvivoGen, San Diego, CA, cat. ant-pm-2), 10% defined fetal bovine serum, heat inactivated (HyClone Laboratories Inc., Logan, UT, cat. SH30070.03HI), 50% L-WRN conditioned media (ATCC, cat. CRL-3276), 1.25 mM N-Acetyl-L-cysteine (Sigma-Aldrich, cat. A9165), 10 mM nicotinamide (Sigma-Aldrich, cat. N0636), 1X B-27 supplement (Thermo Fisher Scientific, cat. 17504044), 1X N-2 supplement (Thermo Fisher Scientific, cat. […]

[1] = second compound 0.0316 µM, first compound 0.0316 µM
[2] = second compound 0.0316 µM, first compound 0.1 µM
[3] = second compound 0.0316 µM, first compound 0.316 µM
[4] = second compound 0.0316 µM, first compound 1 µM
[5] = second compound 0.0316 µM, first compound 3.16 µM
[6] = second compound 0.0316 µM, first compound 10 µM
[7] = second compound 0.1 µM, first compound 0.0316 µM
[8] = second compound 0.1 µM, first compound 0.1 µM
[9] = second compound 0.1 µM, first compound 0.316 µM
[10] = second compound 0.1 µM, first compound 1 µM
[11] = second compound 0.1 µM, first compound 3.16 µM
[12] = second compound 0.1 µM, first compound 10 µM
[13] = second compound 0.316 µM, first compound 0.0316 µM
[14] = second compound 0.316 µM, first compound 0.1 µM
[15] = second compound 0.316 µM, first compound 0.316 µM
[16] = second compound 0.316 µM, first compound 1 µM
[17] = second compound 0.316 µM, first compound 3.16 µM
[18] = second compound 0.316 µM, first compound 10 µM
[19] = second compound 1 µM, first compound 0.0316 µM
[20] = second compound 1 µM, first compound 0.1 µM
[21] = second compound 1 µM, first compound 0.316 µM
[22] = second compound 1 µM, first compound 1 µM
[23] = second compound 1 µM, first compound 3.16 µM
[24] = second compound 1 µM, first compound 10 µM
[25] = second compound 3.16 µM, first compound 0.0316 µM
[26] = second compound 3.16 µM, first compound 0.1 µM
[27] = second compound 3.16 µM, first compound 0.316 µM
[28] = second compound 3.16 µM, first compound 1 µM
[29] = second compound 3.16 µM, first compound 3.16 µM
[30] = second compound 3.16 µM, first compound 10 µM
[31] = second compound 10 µM, first compound 0.0316 µM
[32] = second compound 10 µM, first compound 0.1 µM
[33] = second compound 10 µM, first compound 0.316 µM
[34] = second compound 10 µM, first compound 1 µM
[35] = second compound 10 µM, first compound 3.16 µM
[36] = second compound 10 µM, first compound 10 µM
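Also: spheroids exposed to compounds for 7 days.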
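For viability, T/C in this document: 100% = DMSO vehicle-treated spheroids.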

CCc1cc2c(N3CCc4c(cc(Cn5ccnc5)cc4-c4cn(C)nc4C(F)(F)F)C3=O)cc(C)nc2c(OC)n1 + Cc1cccc(N(C)C(=O)C2C(O)CCN2c2nc(C)cc(C(F)(F)F)c2C#N)c1
IC50 (second compound 0.0316 µM): 1780 nM | IC50 (second compound 0.1 µM): 2490 nM | IC50 (second compound 0.316 µM): 1180 nM | IC50 (second compound 1 µM): 1630 nM | IC50 (second compound 3.16 µM): 2680 nM | IC50 (second compound 10 µM): 1360 nM | viability, T/C [1]: 85.3% | viability, T/C [2]: 65.6% | viability, T/C [3]: 68.5% | viability, T/C [4]: 59.6% | viability, T/C [5]: 41.8% | viability, T/C [6]: 32.9% | viability, T/C [7]: 88.9% | viability, T/C [8]: 77.5% | viability, T/C [9]: 62.2% | viability, T/C [10]: 73.8% | viability, T/C [11]: 43.6% | viability, T/C [12]: 28.8% | viability, T/C [13]: 72% | viability, T/C [14]: 83.9% | viability, T/C [15]: 94% | viability, T/C [16]: 53.1% | viability, T/C [17]: 38.8% | viability, T/C [18]: 22.9% | viability, T/C [19]: 84.1% | viability, T/C [20]: 64.3% | viability, T/C [21]: 81.8% | viability, T/C [22]: 52.9% | viability, T/C [23]: 43.3% | viability, T/C [24]: 30.2% | viability, T/C [25]: 79.4% | viability, T/C [26]: 87.9% | viability, T/C [27]: 66.6% | viability, T/C [28]: 59.3% | viability, T/C [29]: 51% | viability, T/C [30]: 33.8% | viability, T/C [31]: 71.4% | viability, T/C [32]: 78.2% | viability, T/C [33]: 66.2% | viability, T/C [34]: 56.9% | viability, T/C [35]: 34.3% | viability, T/C [36]: 26.7%

CCc1cc2c(N3CCc4c(cc(Cn5ccnc5)cc4-c4cn(C)nc4C(F)(F)F)C3=O)cc(C)nc2c(OC)n1 + COC1C(OC(N)=O)C(O)C(Oc2ccc3c(O)c(NC(=O)c4ccc(O)c(CC=C(C)C)c4)c(=O)oc3c2C)OC1(C)C
IC50 (second compound 0.0316 µM): 3100 nM | IC50 (second compound 0.1 µM): 1720 nM | IC50 (second compound 0.316 µM): 1950 nM | IC50 (second compound 1 µM): 1400 nM | IC50 (second compound 3.16 µM): 3380 nM | IC50 (second compound 10 µM): 2300 nM | viability, T/C [1]: 82.7% | viability, T/C [2]: 82.2% | viability, T/C [3]: 77.6% | viability, T/C [4]: 61.9% | viability, T/C [5]: 51.9% | viability, T/C [6]: 27.7% | viability, T/C [7]: 115% | viability, T/C [8]: 86.8% | viability, T/C [9]: 68.5% | viability, T/C [10]: 55.6% | viability, T/C [11]: 47.9% | viability, T/C [12]: 34.2% | viability, T/C [13]: 76.8% | viability, T/C [14]: 81.9% | viability, T/C [15]: 68.4% | viability, T/C [16]: 61.7% | viability, T/C [17]: 41.7% | viability, T/C [18]: 35.8% | viability, T/C [19]: 95.6% | viability, T/C [20]: 86.8% | viability, T/C [21]: 78% | viability, T/C [22]: 52% | viability, T/C [23]: 41.9% | viability, T/C [24]: 34.7% | viability, T/C [25]: 87.5% | viability, T/C [26]: 74.2% | viability, T/C [27]: 75.3% | viability, T/C [28]: 58.1% | viability, T/C [29]: 58.3% | viability, T/C [30]: 31.4% | viability, T/C [31]: 81.2% | viability, T/C [32]: 85.3% | viability, T/C [33]: 82.6% | viability, T/C [34]: 65.6% | viability, T/C [35]: 44.5% | viability, T/C [36]: 31.7%
